Data from US9233957B2, “5-carbamoyl-adamantan-2-yl amide derivatives, pharmaceutically acceptable salts thereof and preparation process thereof” (SK BIOPHARMACEUTICALS CO., LTD., priority 2011, dated 2016).

Tests used:
[1] = target: T1, Mouse 11b-HSD1 (Mus musculus, UniProt P50172); assay: Inhibition of cortisone-to-cortisol conversion in CHO-K1 cells over-expressing mouse 11b-HSD1 (HTRF cortisol assay); format: cell-based; conditions: CHO-K1 cells over-expressing mouse 11b-HSD1, 160 nM cortisone, 3 hours, 37° C.
T1 construct: expressed in transfected cells
From the text: (§1) cDNA (human: Accession No. U12978.2; mouse: Accession No. NM_008288.2) coding the full-length amino acid sequence of 11β-HSD1 in a human and a mouse was incorporated into pMSCVpuro (from Clontech. Co. Ltd.), a vector of expressing a mammalian cell for the production of a retrovirus, and the resulting product was introduced into a GP2-293 cell (from Clontech Co. Ltd.), a retrovirus packing cell line together with pVSV-G vector (from Clontech Co. Ltd.) by using a Lipotamine plus reagent (from Invitrogen Co. Ltd.) in accordance with the method set forth in the appendix (by using HTRF cortisol assay kit from Cisbio assays Co., Ltd., catalog No. 62CO2PEB) and stabilized for 48 hours. Thereafter, viruses being obtained from those cells were used to infect CHO-K1 cell (from Korean Cell Line Bank, KCLB No. 10061) and in 24 hours, the cells were treated with 10 μg/ml pumycin (from Sigma Co. Ltd.) for two weeks to produce a stabilized cell system wherein each 11β-HSD1 in humans or in mice was over-expressed. When the cells being maintained, 5 μg/ml of puromycin was put into the medium and used (RPMI (Gibco), 37° C.). • Reference material: The EMBO Journal (2008) 27, 642-653
(§2) The obtained cells with 11b-HSD1 in a human and a mouse being over-expressed were sub-cultured in a 96-well plate with a cell number being 3×10^4 cells per well and stabilized for 24 hours [RPMI (Gibco), at 37° C., as being used in 5 days after thawing]. After a medium as diluted with DMSO including 160 nM of cortisone (from Sigma Co. Ltd.) and a test compound at a different concentration was put into each well in an amount of 200 ul, the well was cultured in a cell cultivator at 37° C. for 3 hours. 10 ul of the cultured solution was put into a 384 well plate and the amount of cortisol as generated was measured using a cortisol kit (from Cisbio international Co. Ltd, HTRF assay) in accordance with the method set forth in the appended manual.
(§3) As a control group, 160 nM of cortisone and 1% of DMSO were put into a corresponding well. The ground value was obtained from a well including only 160 nM of cortisone and 1% of DMSO without cells just like the control group. The calculation for a % inhibition level was made following the manual as appended. • Reference material: The Journal of Steroid Biochemistry and Molecular Biology, Volume 104, Issues 3-5, May 2007, Pages 123-129 • Bioorganic & Medicinal Chemistry Letters Volume 19, Issue 10, 15 May 2009, Pages 2674-2678
(§4) Like the analyzing method as stated above, the efficacy of inhibiting 11b-HSD1 was calculated as IC50 and the results are shown in Table 1: […]

[2] = target: T2, Human 11b-HSD1 (Homo sapiens, UniProt P28845); assay: Inhibition of cortisone-to-cortisol conversion in CHO-K1 cells over-expressing human 11b-HSD1 (HTRF cortisol assay); format: cell-based; conditions: CHO-K1 cells over-expressing human 11b-HSD1, 160 nM cortisone, 3 hours, 37° C.
T2 construct: expressed in transfected cells
From the text: as §1, §2, §3, §4

T2 sequence (P28845 whole entry): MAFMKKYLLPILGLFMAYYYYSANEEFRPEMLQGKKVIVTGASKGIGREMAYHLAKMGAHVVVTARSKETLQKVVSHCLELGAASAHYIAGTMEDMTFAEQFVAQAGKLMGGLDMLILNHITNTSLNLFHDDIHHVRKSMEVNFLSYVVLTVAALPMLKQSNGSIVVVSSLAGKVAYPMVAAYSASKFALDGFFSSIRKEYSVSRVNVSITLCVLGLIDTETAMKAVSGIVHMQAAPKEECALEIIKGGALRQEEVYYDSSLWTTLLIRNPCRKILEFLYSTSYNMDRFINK
T1 sequence (P50172 whole entry): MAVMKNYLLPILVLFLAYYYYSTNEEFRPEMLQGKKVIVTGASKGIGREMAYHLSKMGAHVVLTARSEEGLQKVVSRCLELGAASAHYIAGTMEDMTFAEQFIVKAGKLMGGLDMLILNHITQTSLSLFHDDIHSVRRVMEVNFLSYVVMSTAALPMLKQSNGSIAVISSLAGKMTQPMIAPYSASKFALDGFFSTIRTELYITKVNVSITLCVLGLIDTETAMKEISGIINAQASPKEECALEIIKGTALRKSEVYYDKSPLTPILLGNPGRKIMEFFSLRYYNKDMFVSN

SMILES	IC50 [1] [nM]	IC50 [2] [nM]
NC(=O)[C@]12CC3CC(C1)[C@@H](NC(=O)c1ccc(-c4ccccc4F)s1)C(C3)C2 [Example 44, N-(5-carbamoyl-2-adamantyl)-5-(2-fluorophenyl)thiophene-2-carboxamide]	< 100	< 100
NC(=O)[C@]12CC3CC(C1)[C@@H](NC(=O)c1ccc(-c4ccc(F)cc4)o1)C(C3)C2 [Example 25, N-(5-carbamoyl-2-adamantyl)-5-(4-fluorophenyl)furan-2-carboxamide]	< 100	< 100
NC(=O)[C@]12CC3CC(C1)[C@@H](NC(=O)c1ccc(-c4ccc(Cl)c(Cl)c4)o1)C(C3)C2 [Example 31, N-(5-carbamoyl-2-adamantyl)-5-(3,4-dichlorophenyl)furan-2-carboxamide]	100 to 500	< 100
Cc1ccc(-c2ccc(C(=O)N[C@H]3C4CC5CC3C[C@](C(N)=O)(C5)C4)o2)cc1 [Example 4, N-(5-carbamoyl-2-adamantyl)-5-(4-methylphenyl)furan-2-carboxamide]	100 to 500	< 100
NC(=O)[C@]12CC3CC(C1)[C@@H](NC(=O)c1ccc(-c4ccc([N+](=O)[O-])cc4)o1)C(C3)C2 [Example 3, N-(5-carbamoyl-2-adamantyl)-5-(4-nitrophenyl)furan-2-carboxamide]	> 500	< 100
NC(=O)[C@]12CC3CC(C1)[C@@H](NC(=O)c1ccc(-c4ccc(Cl)cc4)s1)C(C3)C2 [Example 41, N-(5-carbamoyl-2-adamantyl)-5-(4-chlorophenyl)thiophene-2-carboxamide]	100 to 500	< 100
NC(=O)[C@]12CC3CC(C1)[C@@H](NC(=O)c1cc(-c4ccc(Cl)cc4)on1)C(C3)C2 [Example 13, N-(5-carbamoyl-2-adamantyl)-5-(4-chlorophenyl)-1,2-oxazole-3-carboxamide]	> 500	100 to 500
NC(=O)[C@]12CC3CC(C1)[C@@H](NC(=O)c1ccc(-c4cccc(Cl)c4)s1)C(C3)C2 [Example 42, N-(5-carbamoyl-2-adamantyl)-5-(3-chlorophenyl)thiophene-2-carboxamide]	< 100	< 100
NC(=O)[C@]12CC3CC(C1)[C@@H](NC(=O)c1ccc(-c4cc(Cl)cc(Cl)c4)o1)C(C3)C2 [Example 32, N-(5-carbamoyl-2-adamantyl)-5-(3,5-dichlorophenyl)furan-2-carboxamide]	100 to 500	< 100
CC(C)COc1cccc2ccc(C(=O)N[C@H]3C4CC5CC3C[C@](C(N)=O)(C5)C4)nc12 [Example 54, N-(5-carbamoyl-2-adamantyl)-8-(2-methylpropoxy)quinoline-2-carboxamide]	> 500	< 100
NC(=O)[C@]12CC3CC(C1)[C@@H](NC(=O)c1ccc(-c4cccs4)s1)C(C3)C2 [Example 21, N-(5-carbamoyl-2-adamantyl)-5-thiophen-2-yl-thiophene-2-carboxamide]	< 100	< 100
COc1ccc(-c2ccc(C(=O)N[C@H]3C4CC5CC3C[C@](C(N)=O)(C5)C4)o2)cc1 [Example 28, N-(5-carbamoyl-2-adamantyl)-5-(4-methoxyphenyl)furan-2-carboxamide]	100 to 500	< 100
NC(=O)[C@]12CC3CC(C1)[C@@H](NC(=O)c1ccc(-c4ccc(F)c(F)c4)o1)C(C3)C2 [Example 29, N-(5-carbamoyl-2-adamantyl)-5-(3,4-difluorophenyl)furan-2-carboxamide]	100 to 500	< 100
Cn1c(C(=O)N[C@H]2C3CC4CC2C[C@](C(N)=O)(C4)C3)ccc1-c1cccc(Cl)c1 [Example 33, N-(5-carbamoyl-2-adamantyl)-5-(3-chlorophenyl)-1-methylpyrrole-2-carboxamide]	< 100	< 100

Results, then the molecule that gave them:

IC50 [1] [nM]	IC50 [2] [nM]	SMILES
< 100	< 100	NC(=O)[C@]12CC3CC(C1)[C@@H](NC(=O)c1cccc(N4CCCCC4)n1)C(C3)C2 [Example 58, N-(5-carbamoyl-2-adamantyl)-6-piperidin-1-yl-pyridine-2-carboxamide]
> 500	100 to 500	Cc1cccc(C(=O)N[C@H]2C3CC4CC2C[C@](C(N)=O)(C4)C3)[n+]1[O-] [Example 63, N-(5-carbamoyl-2-adamantyl)-6-methyl-1-oxidopyridine-1-ium-2-carboxamide]
< 100	< 100	NC(=O)[C@]12CC3CC(C1)[C@@H](NC(=O)c1cccc(N4CCc5ccccc5C4)n1)C(C3)C2 [Example 61, N-(5-carbamoyl-2-adamantyl)6-(3,4-dihydro-1H-isoquinolin-2-yl)pyridine-2-carboxamide]
> 500	> 500	NC(=O)[C@]12CC3CC(C1)[C@@H](NC(=O)c1ccccn1)C(C3)C2 [Example 16, N-(5-carbamoyl-2-adamantyl)pyridine-2-carboxamide]
100 to 500	< 100	COc1cccc(C(=O)N[C@H]2C3CC4CC2C[C@](C(N)=O)(C4)C3)n1 [Example 45, N-(5-carbamoyl-2-adamantyl)-6-methoxypyridine-2-carboxamide]
100 to 500	< 100	CCC(C)Oc1cccc2ccc(C(=O)N[C@H]3C4CC5CC3C[C@](C(N)=O)(C5)C4)nc12 (stereo partly shown) [Example 56, 8-butan-2-yloxy-N-(5-carbamoyl-2-adamantyl)quinoline-2-carboxamide]
100 to 500	< 100	Cc1ccc(C(=O)N[C@H]2C3CC4CC2C[C@](C(N)=O)(C4)C3)s1 [Example 24, N-(5-carbamoyl-2-adamantyl)-5-methylthiophene-2-carboxamide]
100 to 500	< 100	CCCOc1cccc2ccc(C(=O)N[C@H]3C4CC5CC3C[C@](C(N)=O)(C5)C4)nc12 [Example 49, N-(5-carbamoyl-2-adamantyl)-8-propoxyquinoline-2-carboxamide]
100 to 500	< 100	NC(=O)[C@]12CC3CC(C1)[C@@H](NC(=O)c1cccc(N4CCC(c5ccccc5)CC4)n1)C(C3)C2 [Example 62, N-(5-carbamoyl-2-adamantyl)-6-(4-phenylpiperidin-1-yl)pyridine-2-carboxamide]
100 to 500	< 100	CN(C)c1cccc(C(=O)N[C@H]2C3CC4CC2C[C@](C(N)=O)(C4)C3)[n+]1[O-] [Example 65, N-(5-carbamoyl-2-adamantyl)-6-(dimethylamino)-1-oxidopyridin-1-ium-2-carboxamide]
100 to 500	< 100	COc1cccc2ccc(C(=O)N[C@H]3C4CC5CC3C[C@](C(N)=O)(C5)C4)nc12 [Example 50, N-(5-carbamoyl-2-adamantyl)-8-methoxyquinoline-2-carboxamide]
> 500	> 500	Cc1cccc(-c2cc(C(=O)N[C@H]3C4CC5CC3C[C@](C(N)=O)(C5)C4)no2)c1 [Example 6, N-(5-carbamoyl-2-adamantyl)-5-(3-methylphenyl)-1,2-oxazole-3-carboxamide]
> 500	> 500	Cn1cccc1C(=O)N[C@H]1C2CC3CC1C[C@](C(N)=O)(C3)C2 [Example 17, N-(5-carbamoyl-2-adamantyl)-1-methylpyrrole-2-carboxamide]
< 100	< 100	CCCOc1cccc(C(=O)N[C@H]2C3CC4CC2C[C@](C(N)=O)(C4)C3)n1 [Example 46, N-(5-carbamoyl-2-adamantyl)-6-propoxypyridine-2-carboxamide]
< 100	< 100	CCN(CC)c1cccc(C(=O)N[C@H]2C3CC4CC2C[C@](C(N)=O)(C4)C3)n1 [Example 59, N-(5-carbamoyl-2-adamantyl)-6-(diethylamino)pyridine-2-carboxamide]
